According to US20250002476A1, “AZOLE COMPOUNDS FOR CONTROLLING INVERTEBRATE PESTS” (FMC Corporation, priority 2021, published 2025):

Legend:
Type in all cases: in vivo
[1] = system: Corn Planthopper (Peregrinus maidis (Ashmead)); assay: Test B: control of Corn Planthopper on sprayed corn plant; details: 144 h, nymphs, 6 days; for mortality at 50 ppm: sprayed at 50 ppm; for mortality at 10 ppm: sprayed at 10 ppm; for mortality at 250 ppm: sprayed at 250 ppm
Procedure: (§1) Test compounds were formulated using a solution containing 10% acetone, 90% water and 300 ppm Activator 90@ non-ionic surfactant (Loveland Products, Loveland, Colorado, USA). The formulated compounds were applied in 1 mL of liquid through an atomized nozzle positioned 1.27 cm (0.5 inches) above the top of each test unit. Test compounds were sprayed at the rates indicated, and each test was replicated three times.
For evaluating control of Corn Planthopper (Peregrinus maidis (Ashmead)) through contact and/or systemic means, the test unit consisted of a small open container with a 3-4-day-old corn (maize) plant inside. White sand was added to the top of the soil prior to application of the test compound.
Test compounds were formulated and sprayed at 250, 50 and 10 ppm. After spraying of the formulated test compound, the test units were allowed to dry for 1 h before they were post-infested with ˜15-20 nymphs (18-to-21-day-old). A black, screened cap was placed on the top of each test unit, and the test units were held for 6 days in a growth chamber at 22-24° C. and 50-70% relative humidity. Each test unit was then visually assessed for insect mortality.

[2] = system: Green Peach Aphid (Myzus persicae (Sulzer)); assay: Test D: control of Green Peach Aphid on sprayed radish plant; details: 144 h, pre-infested, 6 days; for mortality at 250 ppm: sprayed at 250 ppm; for mortality at 50 ppm: sprayed at 50 ppm
Procedure: as §1
For evaluating control of Green Peach Aphid (Myzus persicae (Sulzer)) through contact and/or systemic means, the test unit consisted of a small open container with a 12-15-day-old radish plant inside. Prior to compound application, each test unit was pre-infested by placing on a leaf of the test plant 30-40 aphids on a piece of leaf excised from a culture plant (cut-leaf method). The aphids moved onto the test plant as the leaf piece desiccated. After pre-infestation, the soil of the test unit was covered with a layer of sand.
Test compounds were formulated and sprayed at 250 and 50 ppm. After spraying of the formulated test compound, each test unit was allowed to dry for 1 hour and then a black, screened cap was placed on top. The test units were held for 6 days in a growth chamber at 19-21° C. and 50-70% relative humidity. Each test unit was then visually assessed for insect mortality.

[3] = system: cotton melon aphid (Aphis gossypii (Glover)); assay: Test E: control of cotton melon aphid on sprayed okra plant; details: 144 h, pre-infested, 6 days; for mortality at 50 ppm: sprayed at 50 ppm; for mortality at 10 ppm: sprayed at 10 ppm; for mortality at 250 ppm: sprayed at 250 ppm
Procedure: as §1
For evaluating control of cotton melon aphid (Aphis gossypii (Glover)) through contact and/or systemic means, the test unit consisted of a small open container with a 5-day-old okra plant inside. This was pre-infested with 30-40 insects on a piece of leaf according to the cut-leaf method, and the soil of the test unit was covered with a layer of sand.
Test compounds were formulated and sprayed at 250, 50, 10 and 2 ppm. After spraying, the test units were maintained in a growth chamber for 6 days at 19° C. and 70% relative humidity. Each test unit was then visually assessed for insect mortality.

[4] = system: silverleaf whitefly (Bemisia argentifolii (Bellows and Perring)); assay: Test F: control of silverleaf whitefly on sprayed soybean plant; details: 288 h, pre-infested (oviposition), 12 days; for mortality at 50 ppm: sprayed at 50 ppm; for mortality at 250 ppm: sprayed at 250 ppm
Procedure: as §1
For evaluating control of silverleaf whitefly (Bemisia argentifolii (Bellows and Perring)) through contact and/or systemic means, each test unit consisted of a small open container with a 5-7 day old soybean plant inside. This was pre-infested by placing test units into cages containing adult whiteflies so that oviposition on the leaves could occur. The adults were removed from the plants with an air-blast nozzle, and the test units were capped. The test units were then stored 2 to 3 days before spraying.
Test compounds were formulated and sprayed at 250 and 50 ppm. After spraying, the test units were maintained in a growth chamber for 12 days at 23° C. and 70% relative humidity. Each test unit was then visually assessed for insect mortality.

Row | Structure (SMILES) | mortality at 50 ppm [1] [%] | mortality at 50 ppm [3] [%] | mortality at 250 ppm [3] [%] | mortality at 250 ppm [1] [%] | also measured
1 | CCC#CCn1cc(-c2cccc(C(F)(F)F)c2)nn1 [Compound 3, 1-(2-Pentyn-1-yl)-4-[3-(trifluoromethyl)phenyl]-1H-1,2,3-triazole] | ≥ 80 | – | – | – | –
2 | CCC#CCn1nnc(-c2ccc(Cl)cc2)n1 [Compound 60, 5-(4-chlorophenyl)-2-(pent-2-yn-1-yl)-1,2,3,4-tetrazole] | – | ≥ 80 | – | – | mortality at 250 ppm [2]: ≥ 80%
3 | CCC#CCn1nnc(-c2ccc(C(F)(F)F)cc2)n1 [Compound 64, 2-(2-Pentyn-1-yl)-5-[4-(trifluoromethyl)phenyl]-2H-tetrazole] | – | – | – | – | mortality at 50 ppm [2]: ≥ 80%; mortality at 10 ppm [3]: ≥ 80%; mortality at 10 ppm [1]: ≥ 80%
4 | CCC#CCn1cc(-c2ccccc2)cn1 [Compound 114] | – | – | ≥ 80 | ≥ 80 | –
5 | CCC#CCn1nnc(-c2ccc(C(F)(F)F)cn2)n1 [Compound 122] | – | – | – | ≥ 80 | –
6 | CCC#CCn1cc(-c2ccc(C(F)(F)F)cn2)nn1 [Compound 123, 2-[1-(2-Pentyn-1-yl)-1H-1,2,3-triazol-4-yl]-5-(trifluoromethyl)pyridine] | ≥ 80 | ≥ 80 | – | – | –
7 | CCC#CCn1ncc(-c2ccc(C(F)(F)F)cn2)n1 [Compound 124, 2-[2-(2-Pentyn-1-yl)-2H-1,2,3-triazol-4-yl]-5-(trifluoromethyl)pyridine] | ≥ 80 | ≥ 80 | – | – | mortality at 50 ppm [2]: ≥ 80%
8 | CCC#CCn1cc(-c2ccc(C(F)(F)F)nc2)nn1 [Compound 125] | – | – | – | ≥ 80 | –
9 | CCC#CCn1ncc(-c2ccc(C(F)(F)F)nc2)n1 [Compound 126, 5-[2-(2-Pentyn-1-yl)-2H-1,2,3-triazol-4-yl]-2-(trifluoromethyl)pyridine] | – | – | – | – | mortality at 50 ppm [2]: ≥ 80%; mortality at 10 ppm [3]: ≥ 80%; mortality at 10 ppm [1]: ≥ 80%
10 | CCC#CCn1nnc(-c2ccsc2)n1 [Compound 129] | – | – | ≥ 80 | – | –
11 | CCC#CCn1nnc(-c2cccs2)n1 [Compound 130] | – | – | ≥ 80 | – | –
12 | CCC#CCn1ncc(-c2ccc(Cl)cn2)n1 [Compound 141] | – | – | ≥ 80 | – | mortality at 250 ppm [2]: ≥ 80%; mortality at 50 ppm [4]: ≥ 50%
13 | CCC#CCn1cc(-c2ccc(F)cn2)nn1 [Compound 149] | ≥ 80 | – | ≥ 80 | – | –
14 | CCC#CCn1ncc(-c2ccc(F)cn2)n1 [Compound 150] | ≥ 80 | ≥ 80 | – | – | mortality at 250 ppm [2]: ≥ 80%
15 | CCC#CCn1cc(-c2cncc(F)c2)nn1 [Compound 154] | – | – | ≥ 80 | ≥ 80 | –
16 | CCC#CCn1cc(-c2ccc(Cl)nc2)nn1 [Compound 156] | – | – | ≥ 80 | – | –
17 | CCC#CCn1nnc(-c2ccc3ccccc3c2)n1 [Compound 168] | ≥ 80 | ≥ 80 | – | – | –
18 | CCC#CCn1nnc(-c2cnc3ccccc3c2)n1 [Compound 169] | – | ≥ 80 | – | ≥ 80 | –
19 | CCC#CCn1ncc(-c2cc(F)cc(C#N)c2)n1 [Compound 175, 3-Fluoro-5-[2-(2-pentyn-1-yl)-2H-1,2,3-triazol-4-yl]benzonitrile] | ≥ 80 | ≥ 80 | – | – | –
20 | CCC#CCn1nnc(-c2cc(C(F)(F)F)ccn2)n1 [Compound 177] | – | ≥ 80 | – | – | –
21 | CCC#CCn1nnc(-c2ccnc(C(F)(F)F)c2)n1 [Compound 188] | – | ≥ 80 | ≥ 80 | – | mortality at 250 ppm [2]: ≥ 80%; mortality at 10 ppm [1]: ≥ 80%
22 | CCC#CCn1nnc(-c2cc3ccccc3o2)n1 [Compound 194] | – | ≥ 80 | – | ≥ 80 | –
23 | CCC#CCn1ncc(-c2ccnc(C(F)(F)F)c2)n1 [Compound 197] | ≥ 80 | ≥ 80 | – | – | –
24 | CCC#CCn1cc(-c2ccnc(C(F)(F)F)c2)nn1 [Compound 198] | – | – | ≥ 80 | ≥ 80 | –
25 | CCC#CCn1ncc(-c2cc(C(F)(F)F)ccn2)n1 [Compound 203] | – | ≥ 80 | – | ≥ 80 | mortality at 250 ppm [2]: ≥ 80%

Row | Structure (SMILES) | mortality at 50 ppm [1] [%] | mortality at 50 ppm [3] [%] | mortality at 250 ppm [3] [%] | mortality at 250 ppm [1] [%] | also measured
26 | CCC#CCn1ncc(-c2cncc(C(F)(F)F)c2)n1 [Compound 204, 3-[2-(2-Pentyn-1-yl)-2H-1,2,3-triazol-4-yl]-5-(trifluoromethyl)pyridine] | ≥ 80 | – | – | – | mortality at 50 ppm [2]: ≥ 80%; mortality at 10 ppm [3]: ≥ 80%
27 | CCC#CCn1cc(-c2cncc(C(F)(F)F)c2)nn1 [Compound 205] | – | – | ≥ 80 | ≥ 80 | –
28 | CCC#CCn1cc(-c2ccc(OC(F)(F)F)nc2)nn1 [Compound 206] | – | – | – | ≥ 80 | –
29 | CCC#CCn1ncc(-c2ccc(OC(F)(F)F)nc2)n1 [Compound 207, 5-[2-(2-Pentyn-1-yl)-2H-1,2,3-triazol-4-yl]-2-(trifluoromethoxy)pyridine] | ≥ 80 | ≥ 80 | – | – | mortality at 50 ppm [2]: ≥ 80%
30 | CCC#CCn1cc(-c2cc(C(F)(F)F)ccn2)nn1 [Compound 208] | ≥ 80 | – | ≥ 80 | – | –
31 | CCC#CCn1cc(-c2cccc(C(F)(F)F)n2)nn1 [Compound 212] | – | – | – | ≥ 80 | –
32 | CCC#CCn1ncc(-c2cccc(C(F)(F)F)n2)n1 [Compound 213] | – | ≥ 80 | – | ≥ 80 | mortality at 250 ppm [2]: ≥ 80%
33 | CCC#CCn1ncc(-c2ccnc(C#N)c2)n1 [Compound 219] | – | ≥ 80 | – | – | –
34 | CCC#CCn1nnc(-c2ccnc(C#N)c2)n1 [Compound 222] | – | ≥ 80 | – | – | –
35 | CCC#CCn1nnc(-c2cc(OC)ccn2)n1 [Compound 223] | – | – | ≥ 80 | – | –
36 | CCC#CCn1ncc(-c2cncc(C#N)c2)n1 [Compound 232] | – | ≥ 80 | – | – | –
37 | CCC#CCn1cc(-c2cncc(C#N)c2)nn1 [Compound 233] | – | – | ≥ 80 | – | –
38 | CCC#CCn1ncc(-c2cc(OC)ccn2)n1 [Compound 234] | – | – | ≥ 80 | – | –
39 | CCC#CCn1nnc(-c2ccnc(OC)c2)n1 [Compound 236, 2-Methoxy-4-[2-(2-pentyn-1-yl)-2H-tetrazol-5-yl]pyridine] | ≥ 80 | ≥ 80 | – | – | mortality at 250 ppm [2]: ≥ 80%
40 | CCC#CCn1ncc(-c2cccc(OC)n2)n1 [Compound 237] | ≥ 80 | – | ≥ 80 | – | –
41 | CCC#CCn1cc(-c2cccc(C#N)n2)nn1 [Compound 249] | – | – | ≥ 80 | – | –
42 | CCC#CCn1ncc(-c2cccc(C#N)n2)n1 [Compound 250] | ≥ 80 | ≥ 80 | – | – | –
43 | CCC#CCn1nnc(-c2cccc(OC)n2)n1 [Compound 251] | – | – | ≥ 80 | ≥ 80 | –
44 | CCC#CCn1ncc(-c2cncc(OC)c2)n1 [Compound 252] | – | – | ≥ 80 | – | –
45 | CCC#CCn1cc(-c2cncc(OC)c2)nn1 [Compound 255] | – | – | – | ≥ 80 | –
46 | CCC#CCn1nnc(-c2cc(OC)cc(C(F)(F)F)c2)n1 [Compound 286, 5-[3-Methoxy-5-(trifluoromethyl)phenyl]-2-(2-pentyn-1-yl)-2H-tetrazole] | – | ≥ 80 | – | ≥ 80 | mortality at 50 ppm [4]: ≥ 50%
47 | COCC#CCn1ncc(-c2ccc(C(F)(F)F)cc2)n1 [Compound 299] | – | – | – | – | mortality at 250 ppm [4]: ≥ 50%
48 | COCC#CCn1nnc(-c2ccc(C(F)(F)F)cc2)n1 [Compound 300] | – | – | ≥ 80 | – | mortality at 250 ppm [4]: ≥ 50%
49 | CCC#CCn1nnc(-c2cc(C#N)ccn2)n1 [Compound 303] | – | – | ≥ 80 | – | –
50 | CCC#CCn1nnc(-c2ccc(OC(F)F)cc2)n1 [Compound 311, 5-[4-(Difluoromethoxy)phenyl]-2-(2-pentyn-1-yl)-2H-tetrazole] | ≥ 80 | ≥ 80 | – | – | mortality at 50 ppm [4]: ≥ 50%
